Test results as given in patent publication US9363996B2, “Compositions and method for blocking ethylene response in field crops using 3-(cy-clopropyl-l-enyl)-propanoic salt” (Yissum Research Development Company of the Hebrew …, priority 2009, dated 2016).

Columns and labels:
[1] = test system: tobacco seedlings; assay: Ethylene-induced chlorophyll degradation in tobacco seedling leaves; type: in vivo, tobacco (Nicotiana tabacum var. 'Samsun')
Method: (§1) (1) Abscission—This is a very sensitive model system for studying the effects of plant hormones. Ethylene induces the process of abscission, while auxin delays it. In the laboratory the experimental system is based on plant organ explants, which include the abscission zone. Abscission is induced by exposure to ethylene and at the termination of the experiment the number of abscised organs, usually either leaf blades or petioles are counted and the fraction of abscission is calculated. In the case of fruit, the decrease in fruit retention force is analyzed. In cotton, when WS-CPD (the ethylene-action antagonist herein disclosed) is tested, the whole plants or explants are pretreated by spraying with the antagonist, dissolved in a phosphate buffer solution (10-20 mM, pH 7.0) including 0.1% commercially available Kinetic™ as surfactant, and left to incubate for a predetermined time, usually between 6 and 24 h. The plants or explants are then further exposed for 24 h to ethylene gas (5 to 20 μL L^−1). The plants or explants are then ventilated and incubated for the required time under controlled conditions. At the end of the experiment the percentage of abscission is determined. (2) Chlorophyll degradation—This is a standard model for studying senescence. Plant material (whole plants, excised leaves or leaf discs) are pretreated. In cotton, tobacco and wheat, when WS-CPD is tested, the whole plants or explants are pretreated by spraying with the antagonist, dissolved in phosphate buffer solution (10-20 mM, pH 7.0) including 0.1% commercially available Kinetic™ surfactant, and left to incubate for a predetermined time, usually between 6 and 241. The plants or explants are then further exposed for 24 h to ethylene gas (1 to 100 μL L^−1), or sprayed with Ethephon™ (wheat; 250 to 750 μL L^−1). The plants or explants are then ventilated and incubated for the required time under controlled conditions. At the end of the experiment a dimethylsulfoxide (DMSO) extract of the plant tissue is prepared, and the chlorophyll content of the extract is determined by spectrophotometric analysis. The chlorophyll content is reported either on a fresh, dry weight basis, or on a surface area basis. (3) Epinasty—This is also one of the classical methods for studying ethylene effects in plants. The extent of ethylene-induced epinasty of leaves is determined by measuring the change of the angle between the petiole and the stem shoot or blade. After exposure of the intact plant to ethylene, the upright grown leaves bend downward. The increase in the angle values (degrees) between petiole and the stem is used as a measure of the effect of the ethylene. […]

[2] = test system: tobacco seedlings; assay: Ethylene-induced leaf yellowing (senescence) of young tobacco seedlings; type: in vivo, tobacco (Nicotiana tabacum var. 'Samsun'); details: for ethylene-induced senescence (leaf yellowing): ethylene 10 μL L^−1
Method: as §1, with “The plants or explants are then further exposed for 24 h to ethylene gas (1 to 100 μL L^−1), or sprayed with Ethephon™ (wheat; 250 to 750 μL L^−1). The plants or explants are then ventilated and incubated for the required time under controlled conditions.” left out, “The chlorophyll content is reported either on a fresh, dry weight basis, or on a surface area basis. (3) Epinasty—This is also one of the classical methods for studying ethylene effects in plants.” left out, “blade.” for “blade. After exposure of the intact plant to ethylene, the upright grown leaves bend downward. The increase in the angle values (degrees) between petiole and the stem is used as a measure of the effect of the ethylene.”

## O=C([O-])CCC1=CC1.[Na+] [WS-CPD, 3-cyclopropyl-1-enyl-propanoic sodium salt]
[1]; WS-CPD 14 μg mL^−1 pretreatment spray, young and mature leaves
  ethylene-induced chlorophyll degradation: completely reversed
[1]; higher concentrations of WS-CPD
  ethylene-induced chlorophyll degradation: less effective
[2]; WS-CPD 14 μg mL^−1
  ethylene-induced senescence (leaf yellowing): antagonized the ethylene-induced senescence only in mature leaves
[2]; WS-CPD 127 μg mL^−1, young leaves
  ethylene-induced senescence (leaf yellowing): slightly effective
[2]; WS-CPD 14 to 127 μg mL^−1, ethylene 20 μL L^−1
  leaf yellowing: very significantly inhibited
